# In PubChem BioAssay AID1963825 (Molecular Pharmacology Branch, DTP, NCI, 2024):
# Experiment: Anticancer human tumor 997537-175-T-J1-PDC patient-derived colon adenocarcinoma cell line growth inhibition [POLQ]
# Conditions: 997537-175-T-J1-PDC complex spheroid viability, combination with POLQ inhibitors; for IC50: curve of first compound; for viability, T/C: stronger effect = lower value
# Procedure, shortened: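 Complex spheroid viability model combining PDC tumour cells with endothelial (HUVEC) and MSC stromal cells. Novobiocin, ART-558 or RP6685 were tested singly and in combination with standard and investigational anticancer drugs. Each was titrated in half-log steps from near clinical Cmax, or from 10 microM where Cmax was unknown.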
# 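Further: luminescence signal used as a surrogate for viable cells; spheroids exposed to drugs for seven days before readout.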
compound,measurement,setting,value
Cn1ncnc1[C@H]1c2n[nH]c(=O)c3cc(F)cc(c23)N[C@@H]1c1ccc(F)cc1 + Cc1cccc(N(C)C(=O)C2C(O)CCN2c2nc(C)cc(C(F)(F)F)c2C#N)c1,IC50,second compound 0.0316 µM,> 100 nM
same,IC50,second compound 0.1 µM,> 100 nM
same,IC50,second compound 0.316 µM,> 100 nM
same,IC50,second compound 1 µM,> 100 nM
same,IC50,second compound 3.16 µM,> 100 nM
same,IC50,second compound 10 µM,> 100 nM
same,"viability, T/C","second compound 0.0316 µM, first compound 0.000316 µM",98%
same,"viability, T/C","second compound 0.0316 µM, first compound 0.001 µM",109%
same,"viability, T/C","second compound 0.0316 µM, first compound 0.00316 µM",93.5%
same,"viability, T/C","second compound 0.0316 µM, first compound 0.01 µM",98.6%
same,"viability, T/C","second compound 0.0316 µM, first compound 0.0316 µM",110%
same,"viability, T/C","second compound 0.0316 µM, first compound 0.1 µM",90%
same,"viability, T/C","second compound 0.1 µM, first compound 0.000316 µM",94.8%
same,"viability, T/C","second compound 0.1 µM, first compound 0.001 µM",113%
same,"viability, T/C","second compound 0.1 µM, first compound 0.00316 µM",76.2%
same,"viability, T/C","second compound 0.1 µM, first compound 0.01 µM",119%
same,"viability, T/C","second compound 0.1 µM, first compound 0.0316 µM",113%
same,"viability, T/C","second compound 0.1 µM, first compound 0.1 µM",97.6%
same,"viability, T/C","second compound 0.316 µM, first compound 0.000316 µM",90.6%
same,"viability, T/C","second compound 0.316 µM, first compound 0.001 µM",102%
same,"viability, T/C","second compound 0.316 µM, first compound 0.00316 µM",94.3%
same,"viability, T/C","second compound 0.316 µM, first compound 0.01 µM",94.6%
same,"viability, T/C","second compound 0.316 µM, first compound 0.0316 µM",91.1%
same,"viability, T/C","second compound 0.316 µM, first compound 0.1 µM",91.4%
same,"viability, T/C","second compound 1 µM, first compound 0.000316 µM",92.6%
same,"viability, T/C","second compound 1 µM, first compound 0.001 µM",109%
same,"viability, T/C","second compound 1 µM, first compound 0.00316 µM",96.1%
same,"viability, T/C","second compound 1 µM, first compound 0.01 µM",100%
same,"viability, T/C","second compound 1 µM, first compound 0.0316 µM",98.3%
same,"viability, T/C","second compound 1 µM, first compound 0.1 µM",84.4%
same,"viability, T/C","second compound 3.16 µM, first compound 0.000316 µM",105%
same,"viability, T/C","second compound 3.16 µM, first compound 0.001 µM",109%
same,"viability, T/C","second compound 3.16 µM, first compound 0.00316 µM",95.6%
same,"viability, T/C","second compound 3.16 µM, first compound 0.01 µM",91.5%
same,"viability, T/C","second compound 3.16 µM, first compound 0.0316 µM",92.1%
same,"viability, T/C","second compound 3.16 µM, first compound 0.1 µM",94.7%
same,"viability, T/C","second compound 10 µM, first compound 0.000316 µM",102%
same,"viability, T/C","second compound 10 µM, first compound 0.001 µM",93.1%
same,"viability, T/C","second compound 10 µM, first compound 0.00316 µM",89.8%
same,"viability, T/C","second compound 10 µM, first compound 0.01 µM",84.4%
same,"viability, T/C","second compound 10 µM, first compound 0.0316 µM",84.4%
same,"viability, T/C","second compound 10 µM, first compound 0.1 µM",99.3%
